Measurements: patent publication US20240299336A1, “SHELF-STABLE FORMULATIONS OF BENZOYL PEROXIDE AND METHODS OF PRODUCING SAME” (BLUE HILL TECHNOLOGIES LLC, priority 2022, published 2024)

Assays:
Type in all cases: physicochemical
[1] = Effect of solvents on benzene levels in 10% w/v benzoyl peroxide formulations; conditions: 10% benzoyl peroxide, 37° C. for 10 days, compared to formulations containing glycerol or NMP
Description: (§1) The method USP <467> Residual Solvents Procedure A was modified from flame ionization detection (FID) to mass spectrometry (MS) detection for benzene in benzoyl peroxide products. The gas chromatography (GC) methods were also modified to allow shorter run time and the method was validated for addition of up to 500 mg benzoyl peroxide product or 200 ml glycerol. Identification of benzene was based on the retention time matching to certified reference standards and mass spectral m/z matching to benzene.
(§2) 10% w/v benzoyl peroxide formulations were prepared. Various solvents were added to the formulations (water, dimethylsulfoxide (DMSO), glycerol. N-methyl-2-pyrrolidone (NMP)) to test whether these solvents could prevent or reduce formation of benzene under certain conditions. The various formulations were incubated at either 37° C., for up to two weeks or at 50° C., for up to two weeks. Benzene levels in each formulation were tested at various time points according to the protocols described in Example 1.

[2] = Effect of antioxidants added to FDA-approved benzoyl peroxide drug products on benzene levels; conditions: antioxidant added to drug product, 50° C. for 2 days
Description: as §1

[3] = Effect of antioxidants on benzene levels in 10% w/v benzoyl peroxide formulations; conditions: 10% w/v benzoyl peroxide plus antioxidant
Description: For benzoyl peroxide stability studies in glycerol, benzoyl peroxide was prepared in a stock suspension of 20% w/v in glycerol and mixed 1:1 with 20% w/v suspensions or v/v solutions of antioxidants in glycerol. For pH experiments, the same stock suspension of benzoyl peroxide was mixed 1:1 with a 50% glycerol solution with 200 mM buffering agent (Citrate buffer pH 3.0, Tris Buffer pH 7.0, or Tris Buffer pH 9.0) for final 75% glycerol solution. The final volume of all reactions was 100 μL in GC headspace vials with 10% solution benzoyl peroxide (10 mg) and 10% antioxidant or 100 mM buffering agent. Vials were immediately crimp sealed for incubation. For analysis, 4.9 mL of DMSO was added to make up the final volume to approximate 5 mL, crimp sealed, and gently vortexed to mix.
Benzene standard was diluted in DMSO for an 11-point calibration ranging from 10 ng/vial to 100 μg/vial. The coefficient of determination R^2 were greater than 0.999. Five (5) mL of DMSO was used for negative control samples.
as §1, with “benzene. Lower limit of detection (LLOD) was 10 ng (equivalent to 0.02 ppm in hand benzoyl peroxide products) and LLOQ was 25 μg. The measurement uncertainty was determined to be 20%.” for “benzene.”
as §2, with “antioxidants” for “solvents”, “(10% w/v butylated hydroxytoluene (BHT), 10% w/v vitamin E acetate, or 5% w/v tert-butyl hydroquinone (TBHQ)+5% w/v BHT)” for “(water, dimethylsulfoxide (DMSO), glycerol. N-methyl-2-pyrrolidone (NMP))”

[4] = Benzene levels formed by crystalline benzoyl peroxide incubated at 50° C.; conditions: 50° C. for up to 12 days
Description: as §1

SMILES	levels of benzene formed in the formulations [1]	levels of benzene formed in two FDA-approved drug products with antioxidant [2]	levels of benzene formed in the formulations ([3]; 37° C. for up to two weeks)	levels of benzene formed in the formulations ([3]; 50° C. for up to two weeks)	also measured
O [water]	most dramatic reduction in, or complete prevention of, benzene levels	–	–	–	–
C[S+](C)[O-] [DMSO, dimethylsulfoxide]	most dramatic reduction in, or complete prevention of, benzene levels	–	–	–	–
CC(C)(C)c1cc(O)ccc1O [TBHQ, tert-butyl hydroquinone]	–	reduce the degradation of benzoyl peroxide to benzene	–	–	–
Cc1cc(C(C)(C)C)c(O)c(C(C)(C)C)c1 [BHT, butylated hydroxytoluene]	–	reduce the degradation of benzoyl peroxide to benzene	most dramatic reduction	most dramatic reduction	–
CC(=O)Oc1c(C)c(C)c2c(c1C)CCC(C)(CCC[C@H](C)CCC[C@H](C)CCCC(C)C)O2 (stereo partly drawn) [vitamin E acetate]	–	–	reduced the levels of benzene	reduced the levels of benzene	–
O=C(OOC(=O)c1ccccc1)c1ccccc1 [crystalline benzoyl peroxide, benzoyl peroxide]	–	–	–	–	levels of benzene formed [4]: may be protected from forming benzene levels
